The numbers were not newly measured in US11154616B2, “Methods of treating locally advanced or metastatic breast cancers using PD-1 axis binding antagonists and taxanes” (Genentech, Inc., priority 2015, dated 2021), which cites them from elsewhere.

The data set concerns mTNBC. Particulars: monotherapy in mTNBC.

For the substance “MPDL3280A: humanized monoclonal anti-PD-L1 antibody that inhibits the binding of PD-L1 to PD-1”, the “clinical response as a monotherapy” value is “durable responses”.
